The target of series [1] is T1, Piezo-type mechanosensitive ion channel component 1 (Homo sapiens, UniProt Q92508). Nature of the series: Agonist activity at human PIEZO1 overexpressing HEK293-A cells co-expressing mCherry-piezo1 assessed as fold change in calcium influx at 25 uM by fluo-3 based real-time flow cytometric analysis. Format: cell-based. Background: Flow cytometry measures light scatter and fluorescence of single cells or particles in a stream.

Series [2] deals with T1, Piezo-type mechanosensitive ion channel component 1. Put plainly: Agonist activity at human PIEZO1 overexpressing HEK293-A cells co-expressing mCherry-piezo1 assessed as fold change in calcium influx at 20 uM by fluo-3 based real-time flow cytometric analysis. Format: cell-based.
Series [3] shares this target. Nature of the series: Agonist activity at human PIEZO1 overexpressing HEK293-A cells co-expressing mCherry-piezo1 assessed as fold change in calcium influx at 15 uM by fluo-3 based real-time flow cytometric analysis. Format: cell-based.
The target is the same in series [4]. Put plainly: Agonist activity at PIEZO1 in human CD4+ T cell assessed as fold increase in intracellular calcium influx measured for 30 mins by flow cytometry analysis. The series is classed as cell-based. On the technique in general: Calcium flux is commonly read through the fluorescence of an indicator in the cells.
Series [5] has the same target. Put plainly: Agonist activity at human PIEZO1 overexpressing HEK293-A cells co-expressing mCherry-piezo1 assessed as induction of calcium influx by fluo-3 based real-time flow cytometric analysis. Format: cell-based.
Series [6] has the same target. Nature of the series: Agonist activity at human PIEZO1 overexpressing HEK293-A cells co-expressing mCherry-piezo1 assessed as induction of calcium influx by measuring maximum efficacy in fold change by fluo-3 based real-time flow cytometric analysis. The series is classed as cell-based. Particulars: filed as agonist.
Series [7] has the same target. Put plainly: Agonist activity at human PIEZO1 overexpressing HEK293-A cells co-expressing mCherry-piezo1 assessed as fold change in calcium influx at 0.5 uM by fluo-3 based real-time flow cytometric analysis. The series is classed as cell-based.
The target is the same in series [8]. Put plainly: Agonist activity at human PIEZO1 overexpressing HEK293-A cells co-expressing mCherry-piezo1 assessed as fold change in calcium influx at 5 uM by fluo-3 based real-time flow cytometric analysis. The series is classed as cell-based.
Series [9] shares this target. Put plainly: Agonist activity at human PIEZO1 overexpressing HEK293-A cells co-expressing mCherry-piezo1 assessed as fold change in calcium influx at 1 uM by fluo-3 based real-time flow cytometric analysis. The series is classed as cell-based.
Series [10] can be described thus: Cytotoxicity against human PBMC cells assessed as decrease in cell viability at 20 uM incubated for 24 hrs by MTT assay. Format: toxicity, cell-based.
The target in series [11] is T1, Piezo-type mechanosensitive ion channel component 1. Put plainly: Agonist activity at human PIEZO1 overexpressing HEK293-A cells co-expressing mCherry-piezo1 assessed as fold change in calcium influx at 0.1 uM by fluo-3 based real-time flow cytometric analysis. Format: cell-based.
A short description of series [12]: Cytotoxicity against human PBMC cells assessed as decrease in cell viability at 0.1 to 5 uM incubated for 6 hrs by MTT assay. The series is classed as toxicity, cell-based. Particulars: dose 0.1-5 µM.
Series [13] can be described thus: Kinetic aqueous solubility of compound in PBS at pH 7.4 measured after 24 hrs by HPLC-UV analysis. Format: physicochemical. Particulars: read-out: Kinetic_solubility.
The target of series [14] is T1, Piezo-type mechanosensitive ion channel component 1. Nature of the series: Agonist activity at human PIEZO1 overexpressing HEK293-A cells co-expressing mCherry-piezo1 assessed as fold change in calcium influx at 10 uM by fluo-3 based real-time flow cytometric analysis. Format: cell-based.
Series [15] shares this target. Put plainly: Agonist activity at PIEZO1 in human CD4+ T cell assessed as intracellular calcium influx measured for 30 mins by flow cytometry analysis. Format: cell-based.

These results are taken from ChEMBL document CHEMBL5506036, “Exploring the Structural Attributes of Yoda1 for the Development of New-Generation Piezo1 Agonist Yaddle1 as a Vaccine Adjuvant Targeting Optimal T Cell Activation” (J Med Chem, 2024).

By pEC50 is commonly meant the negative decadic logarithm of the EC50, by convention in mol/L.

pEC50: −log10 of the molar value. Values after ≈ are worked out from the molar mass of the structure shown. Active and inactive are the calls of the source. No cut-off for these calls is given here.

T1 sequence (Q92508 whole entry): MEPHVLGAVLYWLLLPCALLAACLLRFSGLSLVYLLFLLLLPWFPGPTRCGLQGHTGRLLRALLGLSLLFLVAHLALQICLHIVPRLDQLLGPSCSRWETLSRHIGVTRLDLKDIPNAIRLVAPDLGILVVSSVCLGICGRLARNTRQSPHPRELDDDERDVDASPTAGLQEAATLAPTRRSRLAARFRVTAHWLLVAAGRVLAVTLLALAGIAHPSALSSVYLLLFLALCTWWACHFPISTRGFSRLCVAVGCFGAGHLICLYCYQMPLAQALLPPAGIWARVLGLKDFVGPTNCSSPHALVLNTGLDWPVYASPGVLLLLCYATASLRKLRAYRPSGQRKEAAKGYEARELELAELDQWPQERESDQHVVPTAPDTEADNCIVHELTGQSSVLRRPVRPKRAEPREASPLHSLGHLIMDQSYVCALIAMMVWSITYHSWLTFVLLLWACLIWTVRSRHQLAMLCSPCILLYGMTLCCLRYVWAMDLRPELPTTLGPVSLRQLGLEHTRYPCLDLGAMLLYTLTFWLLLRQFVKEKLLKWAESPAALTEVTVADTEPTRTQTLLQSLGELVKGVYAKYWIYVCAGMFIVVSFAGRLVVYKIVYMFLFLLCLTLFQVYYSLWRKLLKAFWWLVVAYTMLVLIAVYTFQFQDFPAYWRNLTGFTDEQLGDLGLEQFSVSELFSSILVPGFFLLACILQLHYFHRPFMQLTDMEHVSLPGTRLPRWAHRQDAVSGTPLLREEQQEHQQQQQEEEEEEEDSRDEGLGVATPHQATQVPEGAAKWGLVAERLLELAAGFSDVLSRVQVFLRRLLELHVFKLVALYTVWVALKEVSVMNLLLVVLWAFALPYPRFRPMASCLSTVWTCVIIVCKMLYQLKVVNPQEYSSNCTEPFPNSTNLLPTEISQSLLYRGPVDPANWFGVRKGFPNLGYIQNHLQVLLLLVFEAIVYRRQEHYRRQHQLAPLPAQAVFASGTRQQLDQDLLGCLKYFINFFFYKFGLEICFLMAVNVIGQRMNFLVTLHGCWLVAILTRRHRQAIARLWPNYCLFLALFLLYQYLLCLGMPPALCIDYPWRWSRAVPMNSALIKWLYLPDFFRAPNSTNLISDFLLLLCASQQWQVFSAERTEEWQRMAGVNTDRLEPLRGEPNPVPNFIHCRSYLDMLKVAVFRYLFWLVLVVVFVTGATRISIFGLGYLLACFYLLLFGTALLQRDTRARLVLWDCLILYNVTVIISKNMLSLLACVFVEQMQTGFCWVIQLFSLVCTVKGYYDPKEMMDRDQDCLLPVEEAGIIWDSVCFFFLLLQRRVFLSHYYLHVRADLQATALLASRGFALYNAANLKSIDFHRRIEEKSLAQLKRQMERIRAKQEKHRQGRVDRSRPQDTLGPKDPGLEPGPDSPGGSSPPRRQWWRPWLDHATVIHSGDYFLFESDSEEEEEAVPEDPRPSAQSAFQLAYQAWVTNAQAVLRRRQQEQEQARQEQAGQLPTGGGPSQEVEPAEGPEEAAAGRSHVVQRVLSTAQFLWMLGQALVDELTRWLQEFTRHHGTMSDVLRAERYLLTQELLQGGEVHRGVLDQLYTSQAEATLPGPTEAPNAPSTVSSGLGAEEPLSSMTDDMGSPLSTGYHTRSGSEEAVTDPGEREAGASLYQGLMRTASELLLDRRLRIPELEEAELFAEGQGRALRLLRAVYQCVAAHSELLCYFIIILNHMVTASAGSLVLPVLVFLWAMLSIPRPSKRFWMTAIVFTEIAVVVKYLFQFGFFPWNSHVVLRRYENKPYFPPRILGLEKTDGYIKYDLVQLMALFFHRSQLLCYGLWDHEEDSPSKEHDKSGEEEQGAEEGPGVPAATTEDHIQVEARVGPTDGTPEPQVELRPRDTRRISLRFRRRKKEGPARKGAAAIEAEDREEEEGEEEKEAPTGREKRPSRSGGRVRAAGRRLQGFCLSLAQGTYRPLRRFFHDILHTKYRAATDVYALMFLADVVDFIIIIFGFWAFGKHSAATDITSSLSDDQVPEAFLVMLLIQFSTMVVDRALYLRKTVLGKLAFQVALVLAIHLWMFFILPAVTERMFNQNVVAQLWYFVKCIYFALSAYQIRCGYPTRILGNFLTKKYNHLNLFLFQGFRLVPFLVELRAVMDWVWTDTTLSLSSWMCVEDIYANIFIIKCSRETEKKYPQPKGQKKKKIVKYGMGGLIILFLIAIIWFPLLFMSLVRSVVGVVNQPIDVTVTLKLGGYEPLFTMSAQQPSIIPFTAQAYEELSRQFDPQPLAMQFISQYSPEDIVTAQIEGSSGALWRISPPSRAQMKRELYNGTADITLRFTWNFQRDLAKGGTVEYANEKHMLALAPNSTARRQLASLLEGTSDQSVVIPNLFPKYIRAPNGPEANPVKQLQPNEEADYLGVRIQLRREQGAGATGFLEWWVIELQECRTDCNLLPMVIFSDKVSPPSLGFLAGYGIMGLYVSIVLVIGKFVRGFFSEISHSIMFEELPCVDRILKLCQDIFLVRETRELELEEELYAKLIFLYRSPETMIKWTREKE

`Clc1cccc(Cl)c1CSc1nnc(-c2cnccn2)[nH]1`: the result in [1] was inactive. For the same compound, the fold change (FC) in series [2] and in series [3] was below 1.2 in each case.

For the compound `FC(F)(F)c1cccc(Cl)c1CSc1nnc(-c2cnccn2)o1`, the fold change (FC) in series [4] is above 2; in series [6], 2.6; in series [7] it was above 1.2; in series [8], above 1.2; in series [9], above 1.2; in [2], above 1.2. Besides, the fold change (FC) in series [11], in [3] and in series [14] was above 1.2 throughout. In [5], the pEC50 is 6.40. Further, the Activity result in series [10] and in [12] was “Non-Toxic” each time. Further, the solubility kinetic at 24 h in [13] came out at 26.7 µM (≈ 9.96 µg/mL).

Regarding `Clc1ccccc1CSc1nnc(-c2cnccn2)[nH]1`, the outcome in series [1] was inactive. Further, the fold change (FC) in series [2] and in series [3] was below 1.2 throughout.

Take `FC(F)(F)c1ccccc1CSc1nnc(-c2cnccn2)o1`: in series [5], the negative logarithm of the EC50 (pEC50) was 5.69. For the same compound, the result in series [15] was inactive. For the same compound, the fold change (FC) in [6] is 1.35; in [7], below 1.2; in [8] it was below 1.2; in [9], below 1.2; in [2], above 1.2; in series [11] it was below 1.2. Also, the fold change (FC) in series [3] and in series [14] was above 1.2 in each case. In addition, the Activity entry in series [10] and in series [12] was “Non-Toxic” each time.

Consider `FC(F)(F)c1ccc(C(F)(F)F)c(CSc2nnc(-c3cnccn3)o2)c1`, for which the pEC50 in [5] was 6.00. Further, the result in series [15] was inactive. Besides, the fold change (FC) in series [6] was 1.68; in [7], below 1.2; in [8], above 1.2; in [9], above 1.2; in [2], above 1.2; in [11], below 1.2. Besides, the fold change (FC) in series [3] and in [14] was above 1.2 each time.
